Test systems include NCI-H460; SK-MEL-28; MDA-MB-435; HT-29; OVCAR-4; PC-3; OVCAR-8; HL-60; CAKI-1; TK-10; NCI-H23; T47D; SF-268; HCT-116; SK-MEL-2; COLO 205; KM12; NCI/ADR-RES; RXF 393; EKVX.
Experiment in all cases: inhibition of tumour cell growth, NCI panel, 48 h

Each structure is given as a SMILES string.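 Interpolation was linear, between the two tested concentrations surrounding the appropriate level; five concentrations were tested over 48 hours in 96-well plates. GI50 = concentration required for 50% inhibition of growth.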 The source made the active and inactive calls. Rule as the data show it: active = GI50 up to about 1.1 µM and inactive = higher.

Turning to `Cc1cccc(/N=N/C(=O)NNc2cccc(C)c2C)c1C`, the GI50 is 38.5 µM (inactive) with NCI-H460; 43.6 µM (inactive) in the experiment with SK-MEL-28; 26.1 µM (inactive) with MDA-MB-435; 56.9 µM (inactive) with HT-29; 30.8 µM (inactive) with OVCAR-4; 31.5 µM (inactive) in the experiment on PC-3. The GI50 with OVCAR-8 is 33.3 µM (inactive); in the experiment with HL-60 it was 24.5 µM (inactive); with CAKI-1, 39 µM (inactive); in the experiment on TK-10, 37.7 µM (inactive); with NCI-H23, 32.7 µM (inactive); with T47D, 27.2 µM (inactive). Moreover, the figures for the GI50 in the experiment on SF-268, in the experiment on HCT-116 and in the experiment with SK-MEL-2 were 34 µM (inactive), 29.4 µM (inactive) and 21.9 µM (inactive), respectively.

Turning to `CCCCCCCCCCCCOCC(COP(=O)(O)OCCN=[N+]=[N-])OC(=O)CCCCCCCCCCC` (stereo not given), the GI50 was > 100 µM (inactive) in the experiment with NCI-H460; > 100 µM (inactive) in the experiment on SK-MEL-28; > 100 µM (inactive) in the experiment with MDA-MB-435; > 100 µM (inactive) in the experiment on HT-29; 52.2 µM (inactive) in the experiment with OVCAR-4; > 100 µM (inactive) in the experiment with PC-3. The GI50 in the experiment with OVCAR-8, in the experiment on COLO 205, in the experiment on KM12, with CAKI-1, in the experiment with TK-10 and in the experiment on NCI-H23 was > 100 µM (inactive) each time. Also, the GI50 with T47D, in the experiment with SF-268, with NCI/ADR-RES, in the experiment on HCT-116, in the experiment with RXF 393 and with SK-MEL-2 was > 100 µM (inactive) throughout.

For the molecule `CCCCNC(=O)C1=C(C)NC(C)=C(C(=O)NCCCC)C1`, the GI50 was > 100 µM (inactive) in the experiment with NCI-H460; > 100 µM (inactive) in the experiment on SK-MEL-28; 58.7 µM (inactive) in the experiment with EKVX; > 100 µM (inactive) with MDA-MB-435; > 100 µM (inactive) with HT-29; > 100 µM (inactive) in the experiment with OVCAR-4. Moreover, the GI50 was > 100 µM (inactive) with OVCAR-8; > 100 µM (inactive) in the experiment on COLO 205; 71.1 µM (inactive) in the experiment with HL-60; > 100 µM (inactive) in the experiment with KM12; > 100 µM (inactive) in the experiment on CAKI-1; > 100 µM (inactive) in the experiment with TK-10. The GI50 with NCI-H23, in the experiment with T47D, in the experiment on SF-268, in the experiment with NCI/ADR-RES, in the experiment on HCT-116 and in the experiment with RXF 393 was > 100 µM (inactive) throughout. The GI50 with SK-MEL-2 was > 100 µM (inactive).

For the molecule `COc1ccc2c(c1)CC1(O)COc3cc(OC)ccc3C1O2` (stereo not given), the GI50 was > 100 µM (inactive) in the experiment on EKVX; > 100 µM (inactive) with MDA-MB-435; > 100 µM (inactive) in the experiment with HT-29; 63.7 µM (inactive) with OVCAR-4; > 100 µM (inactive) in the experiment on PC-3; > 100 µM (inactive) in the experiment on OVCAR-8. For the same molecule, the GI50 with COLO 205 is > 100 µM (inactive); in the experiment with KM12, > 100 µM (inactive); in the experiment with CAKI-1, > 100 µM (inactive); in the experiment on TK-10 it was > 100 µM (inactive); in the experiment on NCI-H23, > 100 µM (inactive); in the experiment with T47D, 85.7 µM (inactive). The GI50 in the experiment on SF-268 was > 100 µM (inactive); with NCI/ADR-RES it was 68.9 µM (inactive); in the experiment on HCT-116, > 100 µM (inactive); in the experiment on SK-MEL-2, > 100 µM (inactive).

As to `O=C1C=CC(=O)c2ccc(=O)ccc21`, the GI50 is 21.2 µM (inactive) with NCI-H460; 21.4 µM (inactive) in the experiment with SK-MEL-28; 22.4 µM (inactive) in the experiment on EKVX; 21.5 µM (inactive) with MDA-MB-435; 18.4 µM (inactive) in the experiment with HT-29; 9.29 µM (inactive) in the experiment on OVCAR-4. Moreover, the GI50 was 17.8 µM (inactive) in the experiment on PC-3; 17.5 µM (inactive) in the experiment on OVCAR-8; 5.01 µM (inactive) with COLO 205; 2.1 µM (inactive) with HL-60; 19.1 µM (inactive) with KM12; 9.25 µM (inactive) with CAKI-1. Also, the GI50 is 17.6 µM (inactive) with TK-10; 19.1 µM (inactive) in the experiment with NCI-H23; 2.34 µM (inactive) with T47D; 17.1 µM (inactive) in the experiment with SF-268; 10.8 µM (inactive) in the experiment with HCT-116; 6.31 µM (inactive) with RXF 393. The GI50 with SK-MEL-2 is 18.1 µM (inactive).

Turning to `C=CCC1C(O[Si](C)(C)C(C)(C)C)C(CO[Si](C)(C)C(C)(C)C)OC1n1ccc(=O)[nH]c1=O` (stereo not given), the GI50 in the experiment on NCI-H460 was 1.16 µM (inactive); with SK-MEL-28 it was 1.58 µM (inactive); with EKVX, 1.41 µM (inactive); in the experiment on MDA-MB-435 it was 1.47 µM (inactive); in the experiment on HT-29, 1.44 µM (inactive); with OVCAR-4, 1.15 µM (inactive). Also, the GI50 is 1.53 µM (inactive) in the experiment on PC-3; 1.7 µM (inactive) in the experiment on OVCAR-8; 1.63 µM (inactive) in the experiment on COLO 205; 1.96 µM (inactive) with KM12; 1.63 µM (inactive) in the experiment with CAKI-1; 1.29 µM (inactive) in the experiment with NCI-H23. For the same molecule, the GI50 is 1.3 µM (inactive) in the experiment on T47D; 1.66 µM (inactive) in the experiment on NCI/ADR-RES; 1.06 µM (active) with HCT-116; 1.8 µM (inactive) in the experiment with RXF 393; 2.14 µM (inactive) in the experiment with SK-MEL-2.

On to `O=c1cc(-c2ccccc2)oc2cc(Oc3nnnn3-c3ccccc3)ccc12`, for which the GI50 with NCI-H460 is 36.8 µM (inactive); in the experiment on SK-MEL-28, 79.1 µM (inactive); in the experiment on EKVX it was 35.8 µM (inactive); with MDA-MB-435, 15.5 µM (inactive); with HT-29, 57.7 µM (inactive); with OVCAR-4, 19.9 µM (inactive). Further, the GI50 was 39.4 µM (inactive) with PC-3; 34.8 µM (inactive) in the experiment with OVCAR-8; 35.1 µM (inactive) with COLO 205; 30.5 µM (inactive) with HL-60; 40.4 µM (inactive) in the experiment on KM12; 6.14 µM (inactive) in the experiment on CAKI-1. The GI50 in the experiment on TK-10 is 67 µM (inactive); in the experiment on NCI-H23 it was 51.6 µM (inactive); in the experiment on T47D, 11.7 µM (inactive); with SF-268 it was 15 µM (inactive); in the experiment with HCT-116, 34.6 µM (inactive); in the experiment on SK-MEL-2, 28.4 µM (inactive).

Regarding `Cc1cc(Cl)ccc1/N=N/C(=O)NNc1ccc(Cl)cc1C`, the GI50 was 14.4 µM (inactive) in the experiment on NCI-H460; 16.1 µM (inactive) in the experiment with SK-MEL-28; 20.7 µM (inactive) in the experiment on MDA-MB-435; 21.3 µM (inactive) with HT-29; 17.7 µM (inactive) in the experiment with OVCAR-4; 10.4 µM (inactive) in the experiment with PC-3. Besides, the GI50 was 13 µM (inactive) with OVCAR-8; 20.3 µM (inactive) in the experiment on HL-60; 18.2 µM (inactive) with TK-10; 15.5 µM (inactive) with NCI-H23; 5.87 µM (inactive) in the experiment with T47D; 16.4 µM (inactive) in the experiment on SF-268. In addition, the GI50 in the experiment on HCT-116 was 13.4 µM (inactive); in the experiment on SK-MEL-2 it was 14.1 µM (inactive).

Turning to `COc1cc(CCCOC(=O)/C=C/c2ccc(O)c(O)c2)cc(O)c1O`, the GI50 is 49.8 µM (inactive) in the experiment with NCI-H460; 58.3 µM (inactive) with SK-MEL-28; > 100 µM (inactive) in the experiment with EKVX; 28.6 µM (inactive) with MDA-MB-435; 31.6 µM (inactive) in the experiment with HT-29; 40 µM (inactive) in the experiment on OVCAR-4. For the same molecule, the GI50 is 32.4 µM (inactive) in the experiment on PC-3; 70.8 µM (inactive) in the experiment on OVCAR-8; 94.6 µM (inactive) in the experiment with COLO 205; 25.5 µM (inactive) in the experiment on HL-60; 44.2 µM (inactive) in the experiment with KM12; 58.3 µM (inactive) in the experiment with CAKI-1. For the same molecule, the GI50 in the experiment on TK-10 is > 100 µM (inactive); in the experiment on NCI-H23, 56.4 µM (inactive); in the experiment with T47D, 27.9 µM (inactive); in the experiment on SF-268 it was 25.2 µM (inactive); with HCT-116, 17.7 µM (inactive); with RXF 393, 73.6 µM (inactive). The GI50 with SK-MEL-2 is 83.2 µM (inactive).

As to `Fc1cccc(Cl)c1C1SCc2nc3cc4ccccc4cc3n21` (stereo not given), the GI50 was > 100 µM (inactive) in the experiment on SK-MEL-28; > 100 µM (inactive) with EKVX; > 100 µM (inactive) with MDA-MB-435; 89.1 µM (inactive) in the experiment on HT-29; 28.9 µM (inactive) in the experiment with OVCAR-4; > 100 µM (inactive) in the experiment with PC-3. For the same molecule, the GI50 in the experiment with OVCAR-8 is 39.4 µM (inactive); with COLO 205, > 100 µM (inactive); in the experiment on KM12, > 100 µM (inactive); with CAKI-1, 99.1 µM (inactive); in the experiment on TK-10, 62.7 µM (inactive); in the experiment with NCI-H23, > 100 µM (inactive). For the same molecule, the GI50 in the experiment with T47D is > 100 µM (inactive); in the experiment on SF-268, > 100 µM (inactive); in the experiment with NCI/ADR-RES, 64.6 µM (inactive); in the experiment with HCT-116, 68.5 µM (inactive); with RXF 393, > 100 µM (inactive); in the experiment on SK-MEL-2, > 100 µM (inactive).

As to `COc1cccc(C2c3cc4c(cc3OC(N3CCCCC3)C2C)OCO4)c1OC` (stereo not given), the GI50 was 4.46 µM (inactive) in the experiment with NCI-H460; 16.3 µM (inactive) in the experiment on SK-MEL-28; 13.7 µM (inactive) with EKVX; 11.3 µM (inactive) in the experiment on MDA-MB-435; 4.58 µM (inactive) in the experiment with HT-29; 5.58 µM (inactive) with PC-3. Further, the GI50 with OVCAR-8 is > 100 µM (inactive); in the experiment on COLO 205, 7.64 µM (inactive); in the experiment on KM12, 6.32 µM (inactive); in the experiment on CAKI-1, 2.58 µM (inactive); with TK-10, 16.5 µM (inactive); in the experiment with NCI-H23, 14.3 µM (inactive). Moreover, the GI50 was 4.1 µM (inactive) in the experiment on T47D; 8.2 µM (inactive) in the experiment on SF-268; 2.72 µM (inactive) with HCT-116; 4.08 µM (inactive) in the experiment on RXF 393; 5.96 µM (inactive) in the experiment with SK-MEL-2.
